Assay results taken from patent US12331046B2, “CTPS1 inhibitors and uses thereof” (Nimbus Clotho, Inc., priority 2020, dated 2025).

What follows are molecules tested against human CTPS1 (Homo sapiens (Human), UniProt P17812) (assay: hCTPS1 biochemical assay (ADP-Glo)). Settings: hCTPS1 25 nM, ATP 120 uM, UTP 160 uM, GTP 60 uM, L-Glutamine 100 uM, 25 degrees C.
Sequence of human CTPS1 (P17812 whole entry): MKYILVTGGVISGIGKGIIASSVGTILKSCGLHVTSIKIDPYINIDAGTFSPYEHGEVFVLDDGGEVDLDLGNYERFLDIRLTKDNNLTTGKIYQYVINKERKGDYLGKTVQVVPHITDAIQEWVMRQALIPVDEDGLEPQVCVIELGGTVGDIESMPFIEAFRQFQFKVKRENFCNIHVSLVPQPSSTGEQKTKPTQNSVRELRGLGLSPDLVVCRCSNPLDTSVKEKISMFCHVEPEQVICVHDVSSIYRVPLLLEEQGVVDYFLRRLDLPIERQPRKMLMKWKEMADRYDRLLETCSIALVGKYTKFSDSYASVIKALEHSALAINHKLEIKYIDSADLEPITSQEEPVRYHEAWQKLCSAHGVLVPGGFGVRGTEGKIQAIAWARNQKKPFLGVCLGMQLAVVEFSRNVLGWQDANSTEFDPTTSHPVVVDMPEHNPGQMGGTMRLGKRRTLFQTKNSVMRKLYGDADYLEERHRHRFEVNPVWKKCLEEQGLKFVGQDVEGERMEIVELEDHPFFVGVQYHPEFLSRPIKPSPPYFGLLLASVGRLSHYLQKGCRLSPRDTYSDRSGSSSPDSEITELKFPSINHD

IC50	SMILES
< 100 nM	CCOc1cncc(-n2cnc(C(=O)NC3(c4cccc(NS(=O)(=O)C(F)F)c4)CC3)c2)n1 [I-283, N-[1-[3-(difluoromethanesulfonamido)phenyl]cyclopropyl]-1-(6-ethoxypyrazin-2-yl)imidazole-4-carboxamide]
< 100 nM	CCOc1cncc(-c2ccc(C(=O)NCc3cccc(NS(=O)(=O)C(F)F)c3)nc2)n1 [I-63, N-[[3-(difluoromethanesulfonamido)phenyl]methyl]-5-(6-ethoxypyrazin-2-yl)pyridine-2-carboxamide]
< 100 nM	CCOc1cncc(-c2cnc(C(=O)NC(CN3CCNCC3)c3cc(NS(=O)(=O)C4CC4)ccn3)s2)n1 (stereo not drawn) [I-217, N-(1-(4-(cyclopropanesulfonamido)pyridin-2-yl)-2-(piperazin-1-yl)ethyl)-5-(6-ethoxypyrazin-2-yl)thiazole-2-carboxamide]
< 100 nM	CCOc1cncc(-c2cnc(C(=O)N[C@@H](CN3CCNCC3)c3cc(NS(=O)(=O)C4CC4)ccn3)s2)n1 [I-206, (S)—N-(1-(4-(cyclopropanesulfonamido)pyridin-2-yl)-2-(piperazin-1-yl)ethyl)-5-(6-ethoxypyrazin-2-yl)thiazole-2-carboxamide]
< 100 nM	O=C(NCc1cc(NS(=O)(=O)C2CC2)ccn1)c1ncc(-c2cncc(Cl)c2)s1 [I-252]
≥ 1000 nM	CCOc1cncc(-c2cnc(C(=O)N[C@H](CCN(C)C)c3c(F)ccc(NS(=O)(=O)C4CC4)c3F)s2)n1 (single isomer, unassigned) [I-124]
100 to 1000 nM	CCOc1cncc(-c2ccc(C(=O)N3CCC[C@@H]3c3ccnc(NS(=O)(=O)C4CC4)n3)c(F)c2)n1 [I-285, N-[4-[(2R)-1-[4-(6-ethoxypyrazin-2-yl)-2-fluorobenzoyl]pyrrolidin-2-yl]pyrimidin-2-yl]cyclopropanesulfonamide]
100 to 1000 nM	CCOc1cncc(-c2cnc(C(=O)N3CCC[C@H]3c3cncc(NS(=O)(=O)C4CC4)c3)s2)n1 [I-226, (S)—N-(5-(1-(5-(6-ethoxypyrazin-2-yl)thiazole-2-carbonyl)pyrrolidin-2-yl)pyridin-3-yl)cyclopropanesulfonamide]
≥ 1000 nM	CCOc1cncc(-c2ccc(C(=O)N3CCCC3c3ccnc(NS(=O)(=O)C4CC4)n3)nc2)n1 (stereo in doubt) [I-47, N-[4-[(2R)-1-[5-(6-ethoxypyrazin-2-yl)pyridine-2-carbonyl]pyrrolidin-2-yl]pyrimidin-2-yl]cyclopropanesulfonamide]
< 100 nM	CCOc1cncc(-c2cnc(C(=O)N[C@H](CN3C[C@@H]4C[C@H]3CO4)c3cc(NS(=O)(=O)C4CC4)ccn3)s2)n1 (single isomer, unassigned) [I-101]
< 100 nM	CCOc1cncc(-c2cnc(C(=O)N[C@@H](CCCN(C)C)c3cc(NS(=O)(=O)C4CC4)ccn3)s2)n1 [I-155, (S)—N-(1-(4-(cyclopropanesulfonamido)pyridin-2-yl)-4-(dimethylamino)butyl)-5-(6-ethoxypyrazin-2-yl)thiazole-2-carboxamide]
100 to 1000 nM	CCOc1cncc(-c2ccc(C(=O)NCc3cccc(NS(=O)(=O)C4CC4)c3)nc2)n1 [I-18, N-(3-(cyclopropanesulfonamido)benzyl)-5-(6-ethoxypyrazin-2-yl)picolinamide]
< 100 nM	CCOc1cncc(-c2cnc(C(=O)N[C@@H](CN3C[C@@H]4C[C@H]3CO4)c3cc(NS(=O)(=O)C4CC4)ccn3)s2)n1 (single isomer, unassigned) [I-102]
< 100 nM	CCOc1cncc(-c2sc(C(=O)N[C@@H](CC)c3cc(NS(=O)(=O)C4CC4)ccn3)nc2C)n1 [I-219, (S)—N-(1-(4-(cyclopropanesulfonamido)pyridin-2-yl)propyl)-5-(6-ethoxypyrazin-2-yl)-4-methylthiazole-2-carboxamide]

SMILES	IC50
CCOc1cncc(-c2cnc(C(=O)N[C@H](CN3[C@@H]4COC[C@H]3C4)c3cc(NS(=O)(=O)C4CC4)ccn3)s2)n1 [I-115]	< 100 nM
